# Reference: BindingDB's records for doi:10.1021/jm960097t (Duquesne University, 1996)
# pIC50: −log10 of the molar value.
# Key:
# [1] = target: Thymidylate synthase (Pneumocystis carinii); experiment: The inhibitory concentration of compound was evaluated on Pneumocystis carini Thymidylate synthase
# [2] = target: Thymidylate synthase (Streptococcus faecium); experiment: The inhibitory concentration of compound was evaluated on Streptococcus faecium Thymidylate synthase
Compound,pIC50 [1],pIC50 [2]
"Cc1[nH]c2nc(N)[nH]c(=O)c2c1Sc1ccccc1 [2-Amino-6-methyl-5-phenylsulfanyl-3,7-dihydro-pyrrolo[2,3-d]pyrimidin-4-one]",4.22,< 4.52
"Cc1[nH]c2nc(N)[nH]c(=O)c2c1Sc1ccc2ccccc2c1 [2-Amino-6-methyl-5-(naphthalen-2-ylsulfanyl)-3,7-dihydro-pyrrolo[2,3-d]pyrimidin-4-one]",–,< 4.60
"Cc1[nH]c2nc(N)[nH]c(=O)c2c1Sc1ccncc1 [2-Amino-6-methyl-5-(pyridin-4-ylsulfanyl)-3,7-dihydro-pyrrolo[2,3-d]pyrimidin-4-one]",–,4.54
